Experimental findings from patent EP2686338B1, “FUNCTIONALIZED BIOMATERIALS FOR TISSUE REGENERATION” (Nanomed3d S.r.l., priority 2011, dated 2018) are described below.

Data set [1] in a line: Rheology (frequency, time and strain sweeps). Format: physicochemical. As for the experimental part: Rheological properties of the self-assembling peptides of the invention were determined using a controlled stress TA Instruments AR-2000ex rheometer (TA Instruments). A cone-and-plate geometry (acrylic cone diameter, 20 mm; angle, 1°; truncation gap 34 µm) was used. Preliminary strain sweeps were performed for each sample to define the linear viscoelastic region, thus ensuring that moduli were independent of strain. Time sweeps, after addition of PBS (1x) were recorded at 25 C (angular frequency ω=1 Hz) and continued till G' plateaued. Frequency sweeps, both for peptide water solutions and for self-assembled scaffolds, were performed at 25 C with the instrument in oscillatory mode at controlled strain of 1 %. Final strain sweeps was performed at 1Hz oscillatory frequency and at 25 C: onset point of failure was calculated by linear interpolation and subsequent determination of the intersection of the G' modes within the linear region and at material failure respectively.

The subject of data set [2] is human NSCs. Description: Immunofluorescence of differentiated NSC progeny on scaffolds, human NSCs. It is filed as cell-based. To be noted: 1% scaffold; compared to Cultrex positive control. On the procedure:
(§1) In vitro tests were performed as previously described (8), in order to assess whether the biomaterials (assembled hydrogels) obtained with the SAPs of the present invention influenced NSCs adhesion, survival and/or differentiation. SAPeptides (30 µl for each well at a concentration of 10 mg/ml) were assembled into 96 multiwells two hours before cell. Cells (at a concentration of 2x10^4 cells/cm^2) were seeded on the top-surface of each assembled scaffold. Initially, cells were cultured with basal medium supplemented with βFGF (10 ng/ml), added to enhance neuronal progeny differentiation. At 3 days in vitro (DIV), βFGF medium was replaced with Leukemia Inhibitory Factor (LIF, Chemicon) (20 ng/ml) and Brain Derived Neurotrophic Factor (BDNF, Peprotech) (20 ng/ml). Fresh medium was added every three days. For both viability and differentiation assays positive and negative controls consisted of Cultrex-BME® substrate (R&D systems) (1:100 dilution in basal medium) and untreated bottom well surfaces respectively. Cell viability was quantified via CellTiter 96® Aqueous Proliferation Assay (Promega) at 7 DIV as recommended in the Promega protocol. After calibrating the linear response between the cell number and absorbance values, proliferated cell populations were quantified (n=5) by using a Vmax microplate reader (Molecular Devices) at 490nm wavelength. Values, reported as means ± standard error of the mean, were blanked to their respective controls consisting of same substrates and cell culture media without cells.
Immunofluorescence tests were performed for assaying the phenotypes of the differentiated human and murine NSC progenies. In the case of KLP and Ac-KLP just murine NSC have been used. Ac-KLP and KLP scaffolds were prepared at different concentrations in order to display three different stiffness values (viz. 100, 500 and 1000 Pa). This was done to assess the influence of scaffold concentration (and consequently its stiffness) over NSC differentiation. All the other peptides were tested at 1% v/w concentration instead. The following antibodies were used: rabbit polyclonal against GFAP (1:500, DakoCytomation) for astrocytes, mouse monoclonal against βIII-Tubulin (1:500, Covance) for neurons, mouse monoclonal against GalC (1:200, Chemicon) and O4 (1:200, Chemicon) for oligodendrocyes. Secondary Abs were Goat anti Mouse Alexa 488 (1:1000, Molecular Probes), Goat anti Mouse Cy3 (1:1000, Jackson Immunoresearch), Goat anti Rabbit Cy3 (1:1000, Jackson Immunoresearch). […] Quantitative analyses were performed by counting 100-300 cells for each of 9 randomly chosen fields over a total of 3 independent experiments. Phase contrast and fluorescence images of the adhering cells were acquired via Zeiss microscopes Axioplan 2 and ApoTome System at one week after seeding.

Data set [3] concerns human NSCs. The data set can be described thus: Imaging and cell proliferation (MTS) assay on assembled scaffolds, human NSCs. It is filed as cell-based. As for the experimental part: as §1
The subject of data set [4] is acute contusive spinal cord injury (SCI). The data set can be described thus: Acute contusive spinal cord injury model, BBB locomotor rating. Format: in vivo, Sprague-Dawley rats. On the procedure: (§2) 20 female Sprague-Dawley rats weighting 200-250 gr (Charles River Laboratories) were randomly divided into two groups: 1) spinal cord injured animals treated with Ac-FAQ and 2) spinal cord injured animals treated with the saline solution (control group). Rats were anesthetized with an intraperitoneal injection of ketamine (80 mg/kg) and xylazine (10 mg/kg). After laminectomy at the T9-T10 level, the exposed spinal cord was lesioned (Figure 8A1) by a 10-gram rod dropped from a height of 25 mm by using a MASCIS Impactor device (WM Keck Center for Collaborative Neuroscience, Rutgers University), as previously described 33. Immediately after injury, animals were injected with Ac-FAQ (1% acqueous solution) or the saline solution using an Hamilton syringe held via a micromanipulator (Figure 8A2). The biomaterial or the distilled water was delivered into the lesion site at distances of 500 µm, and at each interval two injections of 0,5 µl each were made, for a total dose of 3 µl. After injection, the muscles were sutured and the skin was closed with wound clips. […]
Hindlimb recovery was assessed by using the Basso, Beattie, Bresnahan (BBB) Locomotor Rating Scale. Starting from 1 week post-injury, every 3-4 days each rat was observed and recorded with a digital video camera for 4 min in an open field. Rats were evaluated in double-blind experimental settings. […]

Data set [5] concerns murine NSCs. The data set can be described thus: Immunofluorescence of differentiated NSC progeny on scaffolds, murine NSCs. It is filed as cell-based. The settings on record: 1% scaffold; compared to Cultrex positive control. As for the experimental part:
as §1
Immunofluorescence tests were performed for assaying the phenotypes of the differentiated human and murine NSC progenies. In the case of KLP and Ac-KLP just murine NSC have been used. Ac-KLP and KLP scaffolds were prepared at different concentrations in order to display three different stiffness values (viz. 100, 500 and 1000 Pa). This was done to assess the influence of scaffold concentration (and consequently its stiffness) over NSC differentiation. All the other peptides were tested at 1% v/w concentration instead. The following antibodies were used: rabbit polyclonal against GFAP (1:500, DakoCytomation) for astrocytes, mouse monoclonal against βIII-Tubulin (1:500, Covance) for neurons, mouse monoclonal against GalC (1:200, Chemicon) and O4 (1:200, Chemicon) for oligodendrocyes. Secondary Abs were Goat anti Mouse Alexa 488 (1:1000, Molecular Probes), Goat anti Mouse Cy3 (1:1000, Jackson Immunoresearch), Goat anti Rabbit Cy3 (1:1000, Jackson Immunoresearch). Cell nuclei were counterstained with DAPI (Molecular Probes). Quantitative analyses were performed by counting 100-300 cells for each of 9 randomly chosen fields over a total of 3 independent experiments. Phase contrast and fluorescence images of the adhering cells were acquired via Zeiss microscopes Axioplan 2 and ApoTome System at one week after seeding.

The test system of data set [6] is murine NSCs. The data set can be described thus: Imaging and cell proliferation (MTS) assay on assembled scaffolds, murine NSCs. Format: cell-based. As for the experimental part: as §1
Data set [7] deals with acute contusive spinal cord injury (SCI). The data set can be described thus: Acute contusive spinal cord injury model, histology and morphometrical quantification. Format: in vivo, Sprague-Dawley rats. To be noted: 8 weeks after injury. On the procedure:
as §2
Quantitative analysis was performed on longitudinal sections of rat spinal cords, spanning between T7 and T12 and including the injury site (T9-T10).
The presence of axons expressing Gap-43 and βIII within the cyst was investigated. Gap-43 positive fibers were quantified and the relative value of GAP-43 immunopositive area was expressed as percentage of the total cyst area.
Injured tissue was quantified in seven-to-sixteen longitudinal sections per animal, depending on the cyst extent. […] Sections were stained with hematoxylin/eosin and images were captured (Axioplan2 Zeiss microscope) at 5x magnification, then single images were merged, converted into binary pictures and cavities into the injured area were quantified via Image J software (http://rsb.info.nih.gov/ij/). We measured also the whole injured tissue size. […]
Axon regeneration/sprouting, into the cyst area, was quantified on six longitudinal sections (spaced 160 µm) per animal via GAP-43 (1:200, Millipore) and Cy3-conjugated antibodies (1:1000, Jackson). […]

Entries after “also recorded” stand apart in the source; their conditions may differ. Residues, ends and D or L forms follow the SMILES beside them.

For the molecule `CC(=O)N[C@@H](Cc1ccccc1)C(=O)N[C@@H](C)C(=O)N[C@@H](CCC(N)=O)C(=O)N[C@@H](CCCNC(=N)N)C(=O)N[C@H](C(=O)N1CCC[C@H]1C(=O)N1CCC[C@H]1C(=O)NCC(=O)NCC(=O)NCC(=O)N[C@@H](CC(C)C)C(=O)N[C@@H](CC(=O)O)C(=O)N[C@@H](CC(C)C)C(=O)N[C@@H](CCCCN)C(=O)N[C@@H](CC(C)C)C(=O)N[C@@H](CC(=O)O)C(=O)N[C@@H](CC(C)C)C(=O)N[C@@H](CCCCN)C(=O)N[C@@H](CC(C)C)C(=O)N[C@@H](CC(=O)O)C(=O)N[C@@H](CC(C)C)C(=O)N[C@@H](CCCCN)C(N)=O)C(C)C` [Ac-FAQ, Ac-FAQRVPP-GGG-LDLKLDLKLDLK-CONH2] (Ac-FAQRVPPGGGLDLKLDLKLDLK-NH2), the “G' pre-assembling” value in data set [1] (average storage modulus of SAPeptide solution, 1% w/v, 1-100 Hz, before PBS) is given as 5.11 Pa. Also, in data set [1] (average storage modulus of jellified scaffold, 1% w/v, 1-100 Hz, after PBS), the “G' post-assembling” value worked out at 551.9 Pa. In addition, the “Onset point (% strain)” value in data set [1] (strain percentage at rupture, strain sweep at 1 Hz, 25 C) is 22.75%. Further, the number of neurons entry with human NSCs [2] and in the data set with murine NSCs [5] was “significantly higher” throughout. Besides, the number of oligodendrocytes result in the data set with human NSCs [2] and with murine NSCs [5] was “significantly higher” each time. The “cell morphology, adhesion and spreading” value in the data set on human NSCs [3] (7 DIV on assembled hydrogels) is “spread and branched cells”; in the data set on murine NSCs [6] (7 DIV on assembled hydrogels), “spread and branched cells”. For the same molecule, the “cell viability (MTS, cell population)” value in the data set on human NSCs [3] (7 DIV, scaffolds 10 mg/ml, vs control, P<0.03, n=5) is “cell population was bigger”; in the data set with murine NSCs [6] (7 DIV, scaffolds 10 mg/ml, vs control, P<0.005, n=5), “cell population was bigger”. The molecule further showed a BBB score in data set [4] (1% aqueous solution, 3 µl into lesion site right after injury, week 6,7 and 8 after injury, mean ± SEM) of 11.95 ± 0.30. Besides, the “hindlimb motor recovery in comparison to controls” value in data set [4] (BBB scale, from week 6 after injury, p<0.05) is on record as “significant improvement; also recorded: significantly improved locomotor recovery”. Further, the “Average cumulative cyst area” value in data set [7] (hematoxylin/eosin longitudinal sections, not significant vs controls) was 28.30 ± 6.70 mm^2. For the same molecule, the “cavities size within the cyst, excluding strands of trabeculae” value in data set [7] (not significant vs control) stood at 16.77 ± 4.50 mm^2. The “average immunopositivity for GAP-43” value in data set [7] (p<0.05 vs saline-injected controls) is given as 15.46 ± 1.94 % of the whole cyst area.
